What was measured:
Format in all cases: ADME, organism-based
[1] = Oral bioavailability in CD rat at 1 mg/kg after 7 hrs by LC-MS/MS analysis; conditions: in vivo
[2] = Clearance in CD rat at 1 mg/kg, iv and 1 mg/kg, po after 7 hrs by LC-MS/MS analysis; conditions: in vivo
[3] = Half life in CD rat at 1 mg/kg, iv and 1 mg/kg, po after 7 hrs by LC-MS/MS analysis; conditions: in vivo
[4] = Apparent volume of distribution at steady state in CD rat at 1 mg/kg, iv and 1 mg/kg, po after 7 hrs by LC-MS/MS analysis; conditions: in vivo, read-out: Vdss

bioavailability [1]: 18%
clearance [2]: 56 mL/min/kg
half-life [3]: 9.6 min
Vd [4]: 0.931 L/kg
Compound: Cc1ccccc1C(=O)c1c[nH]c(C(=O)NCc2ccco2)c1

From ChEMBL document CHEMBL1177767, “The discovery and initial optimisation of pyrrole-2-carboxamides as inhibitors of p38alpha MAP kinase” (Bioorg Med Chem Lett, 2010)
